Measurements taken from patent US9957264B2 (Merck Sharp & Dohme Corp., priority 2013, dated 2018).

What was measured:
[1] = molecular target: JAK1 (recombinant purified GST-tagged catalytic domain) (Homo sapiens (Human), UniProt P23458); assay: Jak Biochemical HTRF Assay (JAK1); conditions: [ATP] 31.8 μM
Experimental: (§1) Jak Biochemical HTRF Assay Protocol
The ability of compounds to inhibit the activity of JAK1, JAK2, JAK3, and Tyk2 was measured using a recombinant purified GST-tagged catalytic domain for each enzyme (Invitrogen JAK1 #M4290, JAK2 #M4290, JAK3 #M4290, Tyk2 #M4290) in an HTRF format biochemical assay. The reactions employed a common peptide substrate, LCB-[…]-NH2 (in-house). The basic assay protocol is as follows: First, 250 nL of diluted compounds in DMSO were dispensed into the wells of a dry 384-well Black plate (Greiner #781076) using a Labcyte Echo 555 acoustic dispenser. Subsequent reagent additions employed an Agilent Bravo. […] After equilibration, 2 μL of 10×ATP in 1× assay buffer was added to initiate the kinase reaction and the plates were shaken and then incubated at room temperature for 120 minutes. At the end of the incubation, 20 μL of 2× stop buffer (streptavidin-Dylight 650 (Thermo #84547B/100 mL), Eu-tagged pY20 antibody (Perkin Elmer #AD0067), EDTA, HEPES, and Triton) was added to quench the reaction. Plates were shaken and centrifuged and then incubated 60 minutes at room temperature and then read on a Perkin Elmer Envision (λex=337 nm, λem=665 and 615 nm, TRF delay time=20 μs). HTRF signal=10,000*665 nm reading/615 nm reading. After normalization to untreated controls, the percent inhibition of the HTRF signal at each compound concentration was calculated. The plot of percent inhibition versus the log of compound concentration was fit with a 4-parameter dose response equation to calculate IC50 values.
(§2) Final reaction conditions were:
Examples of the instant invention were evaluated in JAK1 and JAK2 in vitro binding assays as described above. The following table tabulates the JAK1 IC50 values and JAK2 IC50 values disclosed for the instant invention.

[2] = molecular target: JAK2 (recombinant purified GST-tagged catalytic domain) (Homo sapiens (Human), UniProt O60674); assay: Jak Biochemical HTRF Assay (JAK2); conditions: [ATP] 8.5 μM
Sequence of JAK2 (recombinant purified GST-tagged catalytic domain) (O60674 849-1124): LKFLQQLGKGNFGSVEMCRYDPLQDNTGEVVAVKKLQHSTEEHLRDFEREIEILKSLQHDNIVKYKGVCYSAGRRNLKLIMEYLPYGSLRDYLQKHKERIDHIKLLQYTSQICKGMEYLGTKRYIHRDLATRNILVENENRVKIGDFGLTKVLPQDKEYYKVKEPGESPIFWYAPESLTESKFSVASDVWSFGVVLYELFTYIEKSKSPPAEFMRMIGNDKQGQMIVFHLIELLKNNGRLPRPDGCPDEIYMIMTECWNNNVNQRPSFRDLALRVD
Experimental: as §1
The ability of compounds to inhibit the activity of JAK1, JAK2, JAK3, and Tyk2 was measured using a recombinant purified GST-tagged catalytic domain for each enzyme (Invitrogen JAK1 #M4290, JAK2 #M4290, JAK3 #M4290, Tyk2 #M4290) in an HTRF format biochemical assay. […] The basic assay protocol is as follows: First, 250 nL of diluted compounds in DMSO were dispensed into the wells of a dry 384-well Black plate (Greiner #781076) using a Labcyte Echo 555 acoustic dispenser. Subsequent reagent additions employed an Agilent Bravo. […] After equilibration, 2 μL of 10×ATP in 1× assay buffer was added to initiate the kinase reaction and the plates were shaken and then incubated at room temperature for 120 minutes. […] Plates were shaken and centrifuged and then incubated 60 minutes at room temperature and then read on a Perkin Elmer Envision (λex=337 nm, λem=665 and 615 nm, TRF delay time=20 μs). HTRF signal=10,000*665 nm reading/615 nm reading. After normalization to untreated controls, the percent inhibition of the HTRF signal at each compound concentration was calculated. The plot of percent inhibition versus the log of compound concentration was fit with a 4-parameter dose response equation to calculate IC50 values.
as §2
Examples of the instant invention were evaluated in JAK1 and JAK2 in vitro binding assays as described above.

Sequence of JAK1 (recombinant purified GST-tagged catalytic domain) (P23458 875-1153): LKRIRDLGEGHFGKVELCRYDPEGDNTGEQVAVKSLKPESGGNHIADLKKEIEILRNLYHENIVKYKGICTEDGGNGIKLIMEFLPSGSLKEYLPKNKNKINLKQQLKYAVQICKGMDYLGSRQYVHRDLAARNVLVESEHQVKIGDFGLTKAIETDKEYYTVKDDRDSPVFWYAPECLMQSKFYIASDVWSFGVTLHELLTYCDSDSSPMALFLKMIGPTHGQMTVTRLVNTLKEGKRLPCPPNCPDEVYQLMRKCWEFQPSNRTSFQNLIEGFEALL

**Q.** Which IC50 [1] does the source give for COC(=O)[C@@H]1CC[C@@](CC#N)(n2nc(Nc3ccc(S(C)(=O)=O)cc3)c3c(=O)[nH]ccc32)CO1 (racemic) [Example 5-32, (2S,5S and 2R,5R)-methyl 5-(cyanomethyl)-5-(3-((4-(methylsulfonyl)phenyl)amino)-4-oxo-4,5-dihydro-1H-pyrazolo[4,3-c]pyridin-1-yl)tetrahydro-2H-pyran-2-carboxylate] here?
**A.** 0.13 nM

**Q.** What about the IC50 [2] of the same molecule?
**A.** 0.87 nM

**Q.** For CC(C)(C)OC(=O)[C@@H]1CC[C@](CC#N)(n2nc(Nc3ccc(S(C)(=O)=O)cc3)c3c(=O)[nH]ccc32)CO1 (racemic) [Example 5-35, (2R,5S and 2S,5R)-tert-butyl 5-(cyanomethyl)-5-(3-((4-(methylsulfonyl)phenyl)amino)-4-oxo-4,5-dihydro-1H-pyrazolo [4,3-c]pyridin-1-yl) tetrahydro-2H-pyran-2-carboxylate], which IC50 [1] is on record?
**A.** 3.43 nM

**Q.** And the IC50 [2]?
**A.** 29.3 nM

**Q.** Which results are given for CC(C)(C)OC(=O)[C@@H]1CC[C@@](CC#N)(n2nc(Nc3ccc(S(C)(=O)=O)cc3)c3c(=O)[nH]ccc32)CO1 (racemic) [Example 5-36, (2S,5S and 2R,5R)-tert-butyl 5-(cyanomethyl)-5-(3-((4-(methylsulfonyl)phenyl)amino)-4-oxo-4,5-dihydro-1H-pyrazolo[4,3-c]pyridin-1-yl)tetrahydro-2H-pyran-2-carboxylate]?
**A.** IC50 [1]: 0.09 nM; IC50 [2]: 0.34 nM

**Q.** How did the IC50 [1] turn out when C[C@@H]1CCCC1OC(=O)N1CCC(CC#N)(n2nc(Nc3ccc(S(=O)(=O)N(C)C)cc3)c3c(=O)[nH]ccc32)CC1 (mixture of isomers) [Example 11-2, (trans racemic)-2-methylcyclopentyl 4-(cyanomethyl)-4-(3-((4-(N,N-dimethylsulfamoyl)phenyl)amino)-4-oxo-4,5-dihydro-1H-pyrazolo[4,3-c]pyridin-1-yl)piperidine-1-carboxylate] was run?
**A.** 0.38 nM

**Q.** What about the IC50 [2] of the same molecule?
**A.** 1.69 nM

**Q.** Which IC50 [1] does the source give for CC(C)(C)OC(=O)N1CCC(CC#N)(n2nc(Nc3ccc([C@H](O)C(F)(F)F)cc3)c3c(=O)[nH]ccc32)CC1 (single isomer, unassigned) [Example 5-2, tert-butyl 4-(cyanomethyl)-4-[4-oxo-3-({4-[(1S or 1R)-2,2,2-trifluoro-1-hydroxyethyl]phenyl}amino)-4,5-dihydro-1H-pyrazolo[4,3-c]pyridin-1-yl]piperidine-1-carboxylate] here?
**A.** 0.21 nM

**Q.** And the IC50 [2]?
**A.** 0.44 nM

**Q.** Which results are given for CC(C)(C)OC(=O)N1CCC(CC#N)(n2nc(Nc3ccc([C@@H](O)C(F)(F)F)cc3)c3c(=O)[nH]ccc32)CC1 (single isomer, unassigned) [Example 5-3, tert-butyl 4-(cyanomethyl)-4-[4-oxo-3-({4-[(1R or 1S)-2,2,2-trifluoro-1-hydroxyethyl]phenyl}amino)-4,5-dihydro-1H-pyrazolo[4,3-c]pyridin-1-yl]piperidine-1-carboxylate]?
**A.** IC50 [1]: 0.43 nM; IC50 [2]: 1.11 nM

**Q.** Which IC50 [1] does the source give for CC(C)(C)OC(=O)N1CC[C@](CC#N)(n2nc(Nc3ccc(S(C)(=O)=O)cc3)c3c(=O)[nH]ccc32)[C@@H](F)C1 (single isomer, unassigned) [Example 5-14, tert-butyl (3S,4R or 3R,4S)-4-(cyanomethyl)-3-fluoro-4-(3-{[4-(methylsulfonyl)phenyl]amino}-4-oxo-4,5-dihydro-1H-pyrazolo[4,3-c]pyridin-1-yl)piperidine-1-carboxylate] here?
**A.** 1.07 nM

**Q.** And the IC50 [2]?
**A.** 17.7 nM

**Q.** Which IC50 [1] does the source give for CC(C)(C)OC(=O)N1CC[C@@](CC#N)(n2nc(Nc3ccc(S(C)(=O)=O)cc3)c3c(=O)[nH]ccc32)[C@H](F)C1 (single isomer, unassigned) [Example 5-15, tert-butyl (3R,4S or 3S,4R)-4-(cyanomethyl)-3-fluoro-4-(3-{[4-(methylsulfonyl)phenyl]amino}-4-oxo-4,5-dihydro-1H-pyrazolo[4,3-c]pyridin-1-yl)piperidine-1-carboxylate] here?
**A.** 0.27 nM

**Q.** And the IC50 [2]?
**A.** 3.45 nM

**Q.** Which IC50 [1] does the source give for CC(C)(C)OC(=O)N1CC[C@](CC#N)(n2nc(Nc3ccc([C@H](O)C(F)(F)F)cc3)c3c(=O)[nH]ccc32)[C@H](F)C1 (single isomer, unassigned) [Example 5-20, tert-butyl (3R,4R)-4-(cyanomethyl)-3-fluoro-4-[4-oxo-3-({4-[(1S or 1R)-2,2,2-trifluoro-1-hydroxyethyl]phenyl}amino)-4,5-dihydro-1H-pyrazolo [4,3-c]pyridin-1-yl] piperidine-1-carboxylate] here?
**A.** 0.15 nM

**Q.** And the IC50 [2]?
**A.** 0.12 nM

**Q.** Which results are given for CC(C)(C)OC(=O)N1CC[C@](CC#N)(n2nc(Nc3ccc([C@@H](O)C(F)(F)F)cc3)c3c(=O)[nH]ccc32)[C@H](F)C1 (single isomer, unassigned) [Example 5-21, tert-butyl (3R,4R)-4-(cyanomethyl)-3-fluoro-4-[4-oxo-3-({4-[(1R or 1S)-2,2,2-trifluoro-1-hydroxyethyl]phenyl}amino)-4,5-dihydro-1H-pyrazolo[4,3-c]pyridin-1-yl]piperidine-1-carboxylate]?
**A.** IC50 [1]: 0.15 nM; IC50 [2]: 0.14 nM

**Q.** For COC(=O)[C@@H]1CC[C@@](CC#N)(n2nc(Nc3ccc(S(C)(=O)=O)cc3)c3c(=O)[nH]ccc32)CO1 (single isomer, unassigned) [Example 5-33, (2S,5S or 2R,5R)-methyl 5-(cyanomethyl)-5-(3-((4-(methylsulfonyl)phenyl)amino)-4-oxo-4,5-dihydro-1H-pyrazolo[4,3-c]pyridin-1-yl)tetrahydro-2H-pyran-2-carboxylate], which IC50 [1] is on record?
**A.** 0.03 nM

**Q.** What about the IC50 [2] of the same molecule?
**A.** 0.23 nM

**Q.** With COC(=O)[C@H]1CC[C@](CC#N)(n2nc(Nc3ccc(S(C)(=O)=O)cc3)c3c(=O)[nH]ccc32)CO1 (single isomer, unassigned) [Example 5-34, (2S,5S or 2R,5R)-methyl 5-(cyanomethyl)-5-(3-((4-(methylsulfonyl)phenyl)amino)-4-oxo-4,5-dihydro-1H-pyrazolo[4,3-c]pyridin-1-yl)tetrahydro-2H-pyran-2-carboxylate] as the molecule, how does the IC50 [1] read?
**A.** 4.74 nM

**Q.** And the IC50 [2]?
**A.** 22.6 nM

**Q.** With CC(C)(C)OC(=O)[C@@H]1CC[C@](CC#N)(n2nc(Nc3ccc(S(C)(=O)=O)cc3)c3c(=O)[nH]ccc32)CO1 (single isomer, unassigned) [Example 5-37, (2R,5S or 2S,5R)-tert-butyl 5-(cyanomethyl)-5-(3-((4-(methylsulfonyl)phenyl)amino)-4-oxo-4,5-dihydro-1H-pyrazolo[4,3-c]pyridin-1-yl)tetrahydro-2H-pyran-2-carboxylate] as the molecule, how does the IC50 [1] read?
**A.** 1.93 nM

**Q.** And the IC50 [2]?
**A.** 17.1 nM

**Q.** With CN(C)S(=O)(=O)c1ccc(Nc2nn([C@]3(CC#N)CC[C@@H](N4CC(F)C4)CC3)c3cc[nH]c(=O)c23)cc1 [Example 18-29, Trans 4-((1-(1-(cyanomethyl)-4-(3-fluoroazetidin-1-yl)cyclohexyl)-4-oxo-4,5-dihydro-1H-pyrazolo[4,3-c]pyridin-3-yl)amino)-N,N-dimethylbenzenesulfonamide] as the molecule, how does the IC50 [1] read?
**A.** 0.1 nM

**Q.** Which IC50 [1] does the source give for CN(C)S(=O)(=O)c1ccc(Nc2nn([C@]3(CC#N)CC[C@H](N4CC(F)C4)CC3)c3cc[nH]c(=O)c23)cc1 [Example 18-30, Cis 4-((1-(1-(cyanomethyl)-4-(3-fluoroazetidin-1-yl)cyclohexyl)-4-oxo-4,5-dihydro-1H-pyrazolo[4,3-c]pyridin-3-yl)amino)-N,N-dimethylbenzenesulfonamide] here?
**A.** 2.62 nM

**Q.** With Cc1cc(Nc2nn([C@]3(CC#N)CC[C@@H](C(=O)OC(C)(C)C)OC3)c3cc[nH]c(=O)c23)ccc1C(=O)N1CCSCC1 [Example 20-6, (2S,5S)-tert-butyl 5-(cyanomethyl)-5-(3-((3-methyl-4-(thiomorpholine-4-carbonyl)phenyl)amino)-4-oxo-4,5-dihydro-1H-pyrazolo[4,3-c]pyridin-1-yl)tetrahydro-2H-pyran-2-carboxylate] as the molecule, how does the IC50 [1] read?
**A.** 0.13 nM

**Q.** How did the IC50 [1] turn out when CC(C)(C)OC(=O)[C@@H]1CC[C@@](CC#N)(n2nc(Nc3ccc4c(c3)NC(=O)C4(C)C)c3c(=O)[nH]ccc32)CO1 [Example 21-3, (2S,5S)-tert-butyl 5-(cyanomethyl)-5-(3-((3,3-dimethyl-2-oxoindolin-6-yl)amino)-4-oxo-4,5-dihydro-1H-pyrazolo[4,3-c]pyridin-1-yl)tetrahydro-2H-pyran-2-carboxylate] was run?
**A.** 0.07 nM
